As a reminder, the stoichiometry N is a count of units in the complex or per binding partner.

The record followed here is publication PMC6102140, “Structural insight into the human mitochondrial tRNA purine N1-methyltransferase and ribonuclease P complexes” (The Journal of Biological Chemistry, 2018).

The target in assay [1] is T1, MRPP1ΔMTS–MRPP2 complex (SDR activity of MRPP2) (Homo sapiens, UniProt Q99714).
T1 construct: gene HSD17B10; co-expressed in E. coli; His-tagged mature MRPP1 (40-403) and untagged full-length MRPP2; 2:4 complex, 194 kDa by SEC-MALS; with tRNA methyltransferase 10 homolog C
T1 sequence (Q99714 2-261): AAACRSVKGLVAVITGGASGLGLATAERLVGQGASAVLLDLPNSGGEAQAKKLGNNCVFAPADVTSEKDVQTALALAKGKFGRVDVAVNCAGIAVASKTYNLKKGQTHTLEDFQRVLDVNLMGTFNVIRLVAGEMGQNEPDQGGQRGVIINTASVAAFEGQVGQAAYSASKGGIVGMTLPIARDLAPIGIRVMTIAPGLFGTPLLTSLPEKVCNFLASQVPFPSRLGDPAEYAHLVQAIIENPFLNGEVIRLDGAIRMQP
T1 sequence (Q7L0Y3 40-403 partner): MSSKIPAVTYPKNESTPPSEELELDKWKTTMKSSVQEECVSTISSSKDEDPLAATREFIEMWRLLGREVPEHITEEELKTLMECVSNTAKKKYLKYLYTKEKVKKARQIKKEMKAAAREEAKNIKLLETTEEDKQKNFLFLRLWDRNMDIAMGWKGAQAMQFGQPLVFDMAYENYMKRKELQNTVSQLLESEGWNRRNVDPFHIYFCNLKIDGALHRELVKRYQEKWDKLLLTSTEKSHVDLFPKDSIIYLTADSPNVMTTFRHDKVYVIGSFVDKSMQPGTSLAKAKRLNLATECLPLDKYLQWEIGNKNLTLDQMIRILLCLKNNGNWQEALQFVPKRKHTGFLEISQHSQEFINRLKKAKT
As to the kind of experiment: differential scanning fluorimetry. It is filed as binding. The conditions noted are these: pH 7.5, 150 mM NaCl. (In general: Differential scanning fluorimetry follows unfolding on heating by fluorescence.)

Assay [2] concerns the target MRPP1N (N domain of MRPP1), expressed alone (human) (UniProt Q7L0Y3). As to the kind of experiment: SEC; analytical SEC of single proteins, Superdex S200 10/300 GL (or KW403-4F), apparent mass from standards of known Mr, n = 3. Background: Size exclusion chromatography separates by hydrodynamic size, large species first.
The target in assay [3] is T2, MRPP1ΔMTS (Homo sapiens, UniProt Q7L0Y3).
T2 construct: gene TRMT10C; mature protein without mitochondrial targeting signal, residues 40-403, N-terminal His6 vector, E. coli; monomer/dimer mixture
T2 sequence (Q7L0Y3 40-403): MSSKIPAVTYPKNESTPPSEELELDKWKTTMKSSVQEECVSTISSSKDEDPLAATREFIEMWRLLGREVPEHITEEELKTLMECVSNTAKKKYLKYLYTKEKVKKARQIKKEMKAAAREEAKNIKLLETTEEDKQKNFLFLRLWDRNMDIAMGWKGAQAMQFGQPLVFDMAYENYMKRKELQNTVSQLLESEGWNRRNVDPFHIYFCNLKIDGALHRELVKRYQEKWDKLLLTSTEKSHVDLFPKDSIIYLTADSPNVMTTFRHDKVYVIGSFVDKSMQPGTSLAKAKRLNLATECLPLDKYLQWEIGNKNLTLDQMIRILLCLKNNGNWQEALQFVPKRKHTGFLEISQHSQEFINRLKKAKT
As to the kind of experiment: differential scanning fluorimetry. The note with it: 7.5 mM SAM; pH 7.5, 150 mM NaCl. It is filed as binding.

Assay [4] addresses T3, MRPP1ΔMTS–MRPP2 complex (SAM site / MTase activity of MRPP1) (Homo sapiens, UniProt Q7L0Y3).
T3 construct: gene TRMT10C; co-expressed in E. coli; His-tagged mature MRPP1 (40-403) and untagged full-length MRPP2; 2:4 complex, 194 kDa by SEC-MALS; with 3-hydroxyacyl-CoA dehydrogenase type-2
T3 sequence (Q7L0Y3 40-403): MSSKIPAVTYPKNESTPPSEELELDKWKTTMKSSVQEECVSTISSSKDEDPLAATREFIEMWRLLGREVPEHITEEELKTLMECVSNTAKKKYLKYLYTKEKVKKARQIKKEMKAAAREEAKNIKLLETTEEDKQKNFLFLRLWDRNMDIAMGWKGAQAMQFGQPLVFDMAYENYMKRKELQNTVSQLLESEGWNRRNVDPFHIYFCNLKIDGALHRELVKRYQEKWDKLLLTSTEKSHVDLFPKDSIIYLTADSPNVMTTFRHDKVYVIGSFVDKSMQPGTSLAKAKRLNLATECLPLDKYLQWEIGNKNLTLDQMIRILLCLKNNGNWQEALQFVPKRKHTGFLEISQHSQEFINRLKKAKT
T3 sequence (Q99714 2-261 partner): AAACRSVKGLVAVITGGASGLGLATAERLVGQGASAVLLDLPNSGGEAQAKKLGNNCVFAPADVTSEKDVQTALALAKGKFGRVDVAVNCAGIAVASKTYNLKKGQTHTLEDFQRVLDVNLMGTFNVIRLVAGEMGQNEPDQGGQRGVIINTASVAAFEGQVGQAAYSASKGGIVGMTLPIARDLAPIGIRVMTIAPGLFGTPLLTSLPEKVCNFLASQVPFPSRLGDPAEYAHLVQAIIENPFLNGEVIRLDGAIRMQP
The experiment in a line: differential scanning fluorimetry. It is filed as binding. The conditions noted are these: pH 7.5, 150 mM NaCl.

Assay [5] deals with T4, MRPP1MT+C(Δ202) (Homo sapiens, UniProt Q7L0Y3).
T4 construct: gene TRMT10C; methyltransferase domain with C extension, residues 203-403, N-terminal His6 vector, E. coli; residues 380-403 disordered; monomer
T4 sequence (Q7L0Y3 203-403): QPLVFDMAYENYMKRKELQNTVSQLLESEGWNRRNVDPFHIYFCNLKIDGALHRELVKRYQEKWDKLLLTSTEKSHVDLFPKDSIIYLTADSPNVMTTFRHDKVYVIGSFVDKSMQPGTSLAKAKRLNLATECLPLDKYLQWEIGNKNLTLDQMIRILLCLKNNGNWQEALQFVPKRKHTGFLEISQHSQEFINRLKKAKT
The experiment in a line: X-ray crystal structure, […] Å. The format is binding. The conditions noted are these: co-crystallised with SAM, 4 °C.

Assay [6] has as its target T5, MRPP1MT+C(Δ194) (Homo sapiens, UniProt Q7L0Y3).
T5 construct: gene TRMT10C; methyltransferase domain with C extension, residues 195-403, N-terminal His6 vector, E. coli; monomer
T5 sequence (Q7L0Y3 195-403): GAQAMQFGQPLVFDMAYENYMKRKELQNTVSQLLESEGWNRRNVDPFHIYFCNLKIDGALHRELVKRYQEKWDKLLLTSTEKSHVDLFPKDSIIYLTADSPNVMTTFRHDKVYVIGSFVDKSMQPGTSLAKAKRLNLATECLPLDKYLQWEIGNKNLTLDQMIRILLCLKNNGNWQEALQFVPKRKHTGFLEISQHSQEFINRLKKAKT
As to the kind of experiment: differential scanning fluorimetry. The note with it: pH 7.5, 150 mM NaCl. It is filed as binding.

[7] abbreviates: ligand concentration not in text, text says MTase domain, construct boundary not stated.

As for `NC(=O)C1=CN([C@@H]2O[C@H](COP(=O)(O)OP(=O)(O)OC[C@H]3O[C@@H](n4cnc5c(N)ncnc54)[C@H](O)[C@@H]3O)[C@@H](O)[C@H]2O)C=CC1` [NADH], the Tm shift entry in assay [1] is “retained their ability to bind the cofactor (NADH) and methyl donor (SAM)”. Consider “MRPP1N (N domain of MRPP1), expressed alone (from UniProt Q7L0Y3 40-203) (domain or fragment)”, for which the stoichiometry N in assay [2] amounted to 2.

Regarding `C[S+](CC[C@H](N)C(=O)O)C[C@H]1O[C@@H](n2cnc3c(N)ncnc32)[C@H](O)[C@@H]1O` (stereo partly drawn) [SAM, S-adenosyl-L-methionine], the Tm shift is 6.04 ± 0.09 °C in assay [3]; “retained their ability to bind the cofactor (NADH) and methyl donor (SAM)” in assay [4]; 9.75 ± 0.48 °C in assay [6] (7.5 mM SAM). For the same compound, in assay [5], the “X-ray crystal structure, 1.96 Å” value was “Each MRPP1MT subunit is bound by a SAM molecule”. Consider `Nc1ncnc2c1ncn2[C@@H]1O[C@H](CO)[C@@H](OP(=O)(O)O)[C@H]1O` [3′-AMP], for which the Tm shift in assay [6] (setting [7]) was 3.65 ± 0.16 °C. In the case of `Nc1ncnc2c1ncn2[C@@H]1O[C@H](CSCC[C@H](N)C(=O)O)[C@@H](O)[C@H]1O` [S-adenosyl-homocysteine], the Tm shift in assay [6] (setting [7]) turned out to be 5.00 ± 0.18 °C.
